Series [1] deals with T1, porcine granulosa cell 3β-hydroxy-Δ^5-steroid dehydrogenase / 3-keto-Δ^5-steroid isomerase (3βHSD) (Sus scrofa, UniProt Q9N119).
T1 construct: host or cells: porcine granulosa cells
T1 sequence (Q9N119 1-373): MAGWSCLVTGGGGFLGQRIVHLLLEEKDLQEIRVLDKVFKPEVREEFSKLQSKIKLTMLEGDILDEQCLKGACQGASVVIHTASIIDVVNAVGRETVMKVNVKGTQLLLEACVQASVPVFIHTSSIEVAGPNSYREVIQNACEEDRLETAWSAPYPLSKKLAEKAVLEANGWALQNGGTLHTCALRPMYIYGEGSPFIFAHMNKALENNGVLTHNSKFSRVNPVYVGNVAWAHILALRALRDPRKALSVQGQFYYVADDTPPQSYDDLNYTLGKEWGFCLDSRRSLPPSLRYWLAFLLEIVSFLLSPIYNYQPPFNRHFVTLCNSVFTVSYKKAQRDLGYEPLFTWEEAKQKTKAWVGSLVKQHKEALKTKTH
Particulars: cited from earlier work.

For series [2] the following is noted: literature reports; cited from earlier work.
The target in series [3] is T2, bovine adrenal 3β-hydroxy-Δ^5-steroid dehydrogenase / 3-keto-Δ^5-steroid isomerase (3βHSD) (Bos taurus, UniProt P14893).
T2 construct: host or cells: bovine adrenal
T2 sequence (P14893 1-373): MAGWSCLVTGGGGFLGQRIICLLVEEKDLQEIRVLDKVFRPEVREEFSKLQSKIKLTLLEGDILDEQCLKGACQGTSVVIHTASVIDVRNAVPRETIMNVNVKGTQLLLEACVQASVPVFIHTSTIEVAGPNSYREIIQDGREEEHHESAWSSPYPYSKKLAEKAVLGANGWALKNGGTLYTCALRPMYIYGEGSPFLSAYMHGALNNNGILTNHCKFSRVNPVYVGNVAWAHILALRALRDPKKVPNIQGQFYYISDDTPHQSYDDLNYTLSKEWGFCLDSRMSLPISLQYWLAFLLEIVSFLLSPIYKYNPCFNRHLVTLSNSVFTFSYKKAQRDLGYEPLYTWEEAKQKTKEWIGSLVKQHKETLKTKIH
Particulars: cited from earlier work.

Series [4] addresses T3, human type 2 5α-reductase (Homo sapiens, UniProt P31213).
T3 sequence (P31213 1-254): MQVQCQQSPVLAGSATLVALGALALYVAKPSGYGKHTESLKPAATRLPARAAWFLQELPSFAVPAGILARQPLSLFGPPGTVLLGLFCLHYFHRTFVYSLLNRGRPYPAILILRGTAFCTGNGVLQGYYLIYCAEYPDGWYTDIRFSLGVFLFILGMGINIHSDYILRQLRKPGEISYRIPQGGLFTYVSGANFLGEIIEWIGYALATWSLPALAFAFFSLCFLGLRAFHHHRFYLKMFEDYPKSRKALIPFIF
The series can be described thus: 5α-reductase in vitro inhibitory activity, human type 2.
Protocol: (§1) Microsomes were prepared by homogenization of the tissue or cells, followed by differential centrifugation of the homogenate. […] Corresponding incubations were carried out with no test compound as a control study.
(§2) The percentage of conversion of testosterone to DHT in the presence of test compounds compared to the corresponding conversion in the control study was estimated using high pressure liquid chromatography (HPLC) with radiochemical detection.

The target of series [5] is Rat Prostatic 5α-reductase. Kind of series: 5α-reductase in vitro inhibitory activity, rat prostatic. Particulars: read-out: IC50 Rat Prostatic; microsomes derived from prostate tissue from the rat.
Protocol: as §1, §2
Series [6] addresses T4, human type 1 5α-reductase (Homo sapiens, UniProt P18405).
T4 sequence (P18405 1-259): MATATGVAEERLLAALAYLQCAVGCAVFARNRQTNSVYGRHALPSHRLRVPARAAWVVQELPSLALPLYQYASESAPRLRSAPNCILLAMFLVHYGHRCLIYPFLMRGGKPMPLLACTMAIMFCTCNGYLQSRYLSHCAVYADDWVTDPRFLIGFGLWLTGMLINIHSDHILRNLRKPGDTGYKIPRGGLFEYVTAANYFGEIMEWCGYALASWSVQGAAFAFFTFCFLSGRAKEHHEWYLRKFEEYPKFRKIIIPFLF
Kind of series: 5α-reductase in vitro inhibitory activity, human type 1.
Protocol: as §1
For type 2 IC50 measurements, assay components except testosterone were preincubated for 20 minutes at pH 6.0, and following the addition of 8nM testosterone the assays were allowed to proceed for 20-40 minutes. The percentage of conversion of testosterone to DHT in the presence of test compounds compared to the corresponding conversion in the control study was estimated using high pressure liquid chromatography (HPLC) with radiochemical detection.

Setting [7] is: read-out: IC50 Human Type 2, microsomes, preincubated 20 minutes at pH 6.0, 8nM testosterone, 1 mM NADPH.
Where [8] appears, read: read-out: IC50 Human Type 1, microsomes of recombinant baculovirus infected SF9 cells, preincubated 10 minutes at pH 7.0, 100nM testosterone, 1 mM NADPH.

Where two headings read alike, the source gives them in different places. Some results are limits rather than exact numbers.

Turning to `CCN(CC)C(=O)[C@H]1CC[C@H]2[C@@H]3CC[C@H]4N(C)C(=O)CC[C@]4(C)[C@H]3CC[C@]12C` [Compound 4-MA], the “inhibition of 3βHSD” value in series [1] and in series [3] was “potent inhibition” throughout. Besides, the hepatotoxicity entry in series [2] is “hepatotoxicity”.
A word on the IC50: it is the point on the concentration scale where inhibition reaches its midpoint. On to `Cc1ccc(CCNC(=O)C2CCC3C4CNC5=CC(=O)CCC5(C)C4CCC23C)cc1` (stereo not drawn) [Compound 12, 17β-N-(4-Methyl)phenethyl-carbamoyl-6-azaandrost-4-en-3-one], for which the 50% inhibitory concentration (IC50) in series [4] is less than 10 nM; in series [5] it was less than 10 nM; in series [6] it was 10 to 100 nM.
Turning to `C[C@]12CC[C@H]3[C@@H](CNC4=CC(=O)CC[C@@]43C)[C@@H]1CC[C@@H]2C(=O)NC1c2ccccc2-c2ccccc21` [Compound 1, 17β-N-9-Fluorenyl-carbamoyl-6-azaandrost-4-en-3-one], the 50% inhibitory concentration (IC50) in series [4] was less than 10 nM; in series [5], 10 to 100 nM; in series [6], more than 100 nM.
In the case of “17β-N-(2-t-Butyl-5-(N-methyl)methylsulfonamide)phenyl-6-azaandrost-4-en-3-one [Compound 91]”, the results for the IC50 in series [4] (setting [7]), in series [5] and in series [6] (setting [8]) were less than 10 nM, 10 to 100 nM and 10 to 100 nM, respectively.
With `CC(C)(C)c1ccc(C(C)(C)C)c(NC(=O)C2CCC3C4CNC5=CC(=O)CCC5(C)C4CCC23C)c1` (stereo not drawn) [Compound 10, 17β-N-(2,5-Di-t-butyl)phenyl-carbamoyl-6-azaandrost-4-en-3-one], the IC50 in series [4] is less than 10 nM; in series [5] it was 10 to 100 nM; in series [6], less than 10 nM.
Consider `CC12CCC(=O)C=C1NCC1C2CCC2(C)C(C(=O)Nc3ccccc3C(F)(F)F)CCC12` (stereo not drawn) [Compound 9, 17β-N-(2-Trifluoromethyl)phenyl-carbamoyl-6-azaandrost-4-en-3-one], for which the IC50 in series [4] was less than 10 nM; in series [5] it was less than 10 nM; in series [6], 10 to 100 nM.
On to `C[C@]12CC[C@H]3[C@@H](CNC4=CC(=O)CC[C@@]43C)[C@@H]1CC[C@@H]2C(=O)Nc1cccc2c1Cc1ccccc1-2` [Compound 15, 17β-N-1-Fluorenyl-carbamoyl-6-azaandrost-4-en-3-one], for which the IC50 in series [4] was less than 10 nM; in series [5], less than 10 nM; in series [6], more than 100 nM.
Take `C[C@]12CC[C@H]3[C@@H](CNC4=CC(=O)CC[C@@]43C)[C@@H]1CC[C@@H]2COC(=O)C12CC3CC(CC(C3)C1)C2` [Compound 38, 17β-Hydroxymethyl-(1-adamantylcarboxylate)-6-azaandrost-4-en-3-one]: the IC50 is less than 10 nM in series [4], more than 100 nM in series [5] and 10 to 100 nM in series [6].
As for `C[C@]12CC[C@H]3[C@@H](CNC4=CC(=O)CC[C@@]43C)[C@@H]1CC[C@@H]2C(=O)Nc1ccc2c(c1)OCCO2` [Compound 6, 17β-N-4-Benzodioxan-carbamoyl-6-azaandrost-4-en-3-one], the IC50 was 10 to 100 nM in series [4] (setting [7]), 10 to 100 nM in series [5] and more than 100 nM in series [6] (setting [8]).
For `CC(C)(C)C(=O)OCC1CCC2C3CNC4=CC(=O)CCC4(C)C3CCC12C` (stereo not drawn) [Compound 3, 17β-Hydroxymethyl-(trimethylacetate)-6-azaandrost-4-en-3-one], the IC50 is 10 to 100 nM in series [4], less than 10 nM in series [5] and 10 to 100 nM in series [6].
With `CC12CCC(=O)C=C1NCC1C2CCC2(C)C(C(=O)Nc3ccc4c(c3)OCO4)CCC12` (stereo not drawn) [Compound 7, 17β-N-(3,4-Methylenedioxy)phenyl-carbamoyl-6-azaandrost-4-en-3-one], the IC50 in series [4] is less than 10 nM; in series [5], 10 to 100 nM; in series [6], more than 100 nM.
For `CC(Cc1ccccc1)NC(=O)C1CCC2C3CNC4=CC(=O)CCC4(C)C3CCC12C` (stereo not drawn) [Compound 13, 17β-N-(α-Methyl)phenethyl-carbamoyl-6-azaandrost-4-en-3-one], in that order: less than 10 nM, less than 10 nM and 10 to 100 nM.
Taken in the same sequence, the figures for `CC(C)(C)C1CCC(NC(=O)[C@H]2CC[C@H]3[C@@H]4CNC5=CC(=O)CC[C@]5(C)[C@H]4CC[C@]23C)CC1` (stereo partly drawn) [Compound 51, 17β-N-(4-t-Butyl)cyclohexyl-carbamoyl-6-azaandrost-4-en-3-one] were 10 to 100 nM, more than 100 nM and more than 100 nM.
Taken in the same sequence, the figures for `C[C@]12CC[C@H]3[C@@H](CNC4=CC(=O)CC[C@@]43C)[C@@H]1CC[C@@H]2C(=O)NCCc1ccccn1` [Compound 20, 17β-N-2-(2-Pyridyl)ethyl-carbamoyl-6-azaandrost-4-en-3-one] were 10 to 100 nM, 10 to 100 nM and more than 100 nM.
On to `CC12CCC(=O)C=C1NCC1C2CCC2(C)C(C(=O)Nc3ccc(N4CCOCC4)cc3)CCC12` (stereo not drawn) [Compound 5, 17β-N-Phenyl-(4-morpholino)-carbamoyl-6-azaandrost-4-en-3-one], for which the IC50 is 10 to 100 nM in series [4], 10 to 100 nM in series [5] and more than 100 nM in series [6].
With `Cc1cc(Br)cc(C)c1NC(=O)[C@H]1CC[C@H]2[C@@H]3CNC4=CC(=O)CC[C@]4(C)[C@H]3CC[C@]12C` [Compound 46, 17β-N-(2,6-Dimethyl-4-bromo)phenyl-carbamoyl-6-azaandrost-4-en-3-one], the IC50 is less than 10 nM in series [4], less than 10 nM in series [5] and 10 to 100 nM in series [6].
